# Measured values reported in patent US11311542B2, “Inhibitors of cyclin dependent kinase 7 (CDK7)” (Syros Pharmaceuticals, Inc., priority 2018, dated 2022).
# Read-outs that look alike come from different tables or passages of the source.
# Experiments:
# HCC70 cells = test: Inhibition of cell proliferation (CyQUANT Direct), HCC70; assay type: cell-based, human; settings: HCC70, 72-hour
# COV318 cells = test: Inhibition of cell proliferation (CyQUANT Direct), COV318; assay type: cell-based, human; settings: COV318, 72-hour
# COV504 cells = test: Inhibition of cell proliferation (CyQUANT Direct), COV504; assay type: cell-based, human; settings: COV504, 72-hour
# MB453 cells = test: Inhibition of cell proliferation (CyQUANT Direct), MB453; assay type: cell-based, human; settings: MB453, 72-hour
# CDK2/Cyclin E1 complex = CDK2/Cyclin E1 complex (Homo sapiens, UniProt P24941); test: CDK2 kinase inhibition assay (Caliper/LabChip EZ Reader)
# Description: (§1) Compounds described herein were assayed for inhibition of CDK7, CDK9, CDK12, and CDK2 activity at Biortus Biosciences (Jiangyin, Jiangsu Province, P.R. of China) using kinase assays for each CDK developed with a Caliper/LabChip EZ Reader (Perkin Elmer, Waltham, Mass.).
# (§2) Furthermore, the CDK9 inhibition assay used CDK9/Cyclin T1 complex (8 nM) and “5-FAM-CDK9tide” peptide substrate (2 μM, synthesized fluorophore-labeled peptide with the following sequence: 5-FAM-GSRTPMY-NH2 (SEQ ID NO:2) where 5-FAM is defined above and NH2 signifies a C-terminal amide) with 10 mM MgCl2 in the buffer composition listed above. The CDK12 inhibition assay used CDK12 (aa686-1082)/Cyclin K complex (50 nM) and “5-FAM-CDK9tide” (2 μM) as defined above, with 2 mM MgCl2 in the buffer composition above. Additionally, the CDK2 inhibition assay used CDK2/Cyclin E1 complex (0.5 nM) and “5-FAM-CDK7tide” (2 μM; defined above) with 2 mM MgCl2 in the buffer composition above.
# (§3) The incubation period at 27° C. for each CDK inhibition assay was chosen such that the fraction of phosphorylated peptide product produced in each assay, relative to the total peptide concentration, was approximately 20% (±5%) for the uninhibited kinase (35 min. for CDK7, 35 min. for CDK2, 3 hr. for CDK12, 15 min. for CDK9).
# [1] = biological target: CDK7/Cyclin H/MAT1 complex (Homo sapiens, UniProt P50613); test: CDK7 kinase inhibition assay (Caliper/LabChip EZ Reader)
# Description: as §1, §2, §3
# CDK9/Cyclin T1 complex = CDK9/Cyclin T1 complex (Homo sapiens, UniProt P50750); test: CDK9 kinase inhibition assay (Caliper/LabChip EZ Reader)
# Description: as §1, §2, §3
# [2] = biological target: CDK12 (aa686-1082)/Cyclin K complex (Homo sapiens, UniProt Q9NYV4); test: CDK12 kinase inhibition assay (Caliper/LabChip EZ Reader)
# Description: as §1, §2, §3
# [3] = read-out: CDK2 IC50, CDK2/Cyclin E1 0.5 nM, ATP 2 mM, 35 min at 27° C.
# [4] = read-out: CDK7 IC50, CDK7/Cyclin H/MAT1 6 nM, ATP 2 mM, 35 min at 27° C.
# [5] = read-out: CDK9 IC50, CDK9/Cyclin T1 8 nM, ATP 2 mM, 15 min at 27° C.
# [6] = read-out: CDK12 IC50, CDK12 (aa686-1082)/Cyclin K 50 nM, ATP 2 mM, 3 hr at 27° C.
# Chain of CDK12 (aa686-1082)/Cyclin K complex (Q9NYV4 686-1082): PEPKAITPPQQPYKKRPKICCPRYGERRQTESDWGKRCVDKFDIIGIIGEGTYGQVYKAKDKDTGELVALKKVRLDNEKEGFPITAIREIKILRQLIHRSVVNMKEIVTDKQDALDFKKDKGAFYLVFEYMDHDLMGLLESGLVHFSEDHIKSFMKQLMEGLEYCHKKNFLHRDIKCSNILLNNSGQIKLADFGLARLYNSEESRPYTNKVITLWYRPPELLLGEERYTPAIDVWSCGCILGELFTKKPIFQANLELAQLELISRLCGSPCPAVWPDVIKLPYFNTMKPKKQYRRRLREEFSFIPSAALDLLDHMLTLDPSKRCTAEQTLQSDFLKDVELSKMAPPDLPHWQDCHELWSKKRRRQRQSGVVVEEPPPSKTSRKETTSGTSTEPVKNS
# Chain of CDK12 (aa686-1082)/Cyclin K complex (O75909 whole entry partner, the tested form may be a part): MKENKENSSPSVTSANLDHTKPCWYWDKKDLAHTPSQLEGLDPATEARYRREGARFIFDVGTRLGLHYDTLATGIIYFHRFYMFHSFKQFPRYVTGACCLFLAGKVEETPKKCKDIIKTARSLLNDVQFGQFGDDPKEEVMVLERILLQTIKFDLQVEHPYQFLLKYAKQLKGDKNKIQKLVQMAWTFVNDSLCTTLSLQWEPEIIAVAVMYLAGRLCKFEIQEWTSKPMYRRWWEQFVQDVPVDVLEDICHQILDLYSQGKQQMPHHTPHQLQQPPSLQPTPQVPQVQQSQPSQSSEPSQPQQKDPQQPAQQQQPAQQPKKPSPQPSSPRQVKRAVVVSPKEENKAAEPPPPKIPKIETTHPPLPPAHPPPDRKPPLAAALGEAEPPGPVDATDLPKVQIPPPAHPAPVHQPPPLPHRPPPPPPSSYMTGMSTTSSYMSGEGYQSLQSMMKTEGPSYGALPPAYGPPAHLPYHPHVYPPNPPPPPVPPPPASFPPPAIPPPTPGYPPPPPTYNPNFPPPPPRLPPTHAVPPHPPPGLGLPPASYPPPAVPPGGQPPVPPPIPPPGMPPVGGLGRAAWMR
# Chain of CDK7/Cyclin H/MAT1 complex (P50613 whole entry): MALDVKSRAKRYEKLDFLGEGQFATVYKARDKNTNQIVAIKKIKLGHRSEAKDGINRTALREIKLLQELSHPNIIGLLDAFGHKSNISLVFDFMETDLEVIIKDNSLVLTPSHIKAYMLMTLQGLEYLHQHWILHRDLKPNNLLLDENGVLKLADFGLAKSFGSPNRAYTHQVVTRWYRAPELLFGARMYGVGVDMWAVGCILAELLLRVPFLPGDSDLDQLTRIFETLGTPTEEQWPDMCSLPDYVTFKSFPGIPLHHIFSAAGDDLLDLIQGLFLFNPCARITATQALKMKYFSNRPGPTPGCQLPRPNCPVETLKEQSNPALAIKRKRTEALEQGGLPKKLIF
# Chain of CDK7/Cyclin H/MAT1 complex (P51946 whole entry partner): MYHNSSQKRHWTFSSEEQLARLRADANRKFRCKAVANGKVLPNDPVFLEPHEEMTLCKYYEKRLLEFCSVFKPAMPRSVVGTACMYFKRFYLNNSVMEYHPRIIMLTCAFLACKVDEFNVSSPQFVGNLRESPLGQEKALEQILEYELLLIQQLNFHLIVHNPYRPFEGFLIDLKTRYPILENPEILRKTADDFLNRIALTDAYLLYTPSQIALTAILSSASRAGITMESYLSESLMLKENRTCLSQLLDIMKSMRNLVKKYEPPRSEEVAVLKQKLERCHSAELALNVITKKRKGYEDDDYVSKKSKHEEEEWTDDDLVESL
# Chain of CDK7/Cyclin H/MAT1 complex (P51948 whole entry partner): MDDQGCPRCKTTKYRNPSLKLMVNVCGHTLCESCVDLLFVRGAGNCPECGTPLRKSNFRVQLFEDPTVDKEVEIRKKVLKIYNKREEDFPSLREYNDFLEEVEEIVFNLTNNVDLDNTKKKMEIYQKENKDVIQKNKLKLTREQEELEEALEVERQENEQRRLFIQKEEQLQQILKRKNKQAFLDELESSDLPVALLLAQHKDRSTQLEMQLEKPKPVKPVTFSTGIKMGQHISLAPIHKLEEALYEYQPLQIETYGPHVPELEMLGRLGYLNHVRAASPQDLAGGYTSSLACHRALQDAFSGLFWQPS
# Chain of CDK9/Cyclin T1 complex (P50750 whole entry, the tested form may be a part): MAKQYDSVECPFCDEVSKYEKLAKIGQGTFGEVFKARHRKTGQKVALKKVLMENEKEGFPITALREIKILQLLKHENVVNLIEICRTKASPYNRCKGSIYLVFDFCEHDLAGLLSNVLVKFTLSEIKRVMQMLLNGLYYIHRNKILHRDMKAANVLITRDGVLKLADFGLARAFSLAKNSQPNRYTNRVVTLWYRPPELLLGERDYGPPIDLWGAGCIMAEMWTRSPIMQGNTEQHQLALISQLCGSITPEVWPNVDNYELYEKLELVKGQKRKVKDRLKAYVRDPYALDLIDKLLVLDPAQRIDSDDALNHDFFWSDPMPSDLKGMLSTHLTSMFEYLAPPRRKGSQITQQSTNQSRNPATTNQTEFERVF
# Chain of CDK9/Cyclin T1 complex (O60563 whole entry partner, the tested form may be a part): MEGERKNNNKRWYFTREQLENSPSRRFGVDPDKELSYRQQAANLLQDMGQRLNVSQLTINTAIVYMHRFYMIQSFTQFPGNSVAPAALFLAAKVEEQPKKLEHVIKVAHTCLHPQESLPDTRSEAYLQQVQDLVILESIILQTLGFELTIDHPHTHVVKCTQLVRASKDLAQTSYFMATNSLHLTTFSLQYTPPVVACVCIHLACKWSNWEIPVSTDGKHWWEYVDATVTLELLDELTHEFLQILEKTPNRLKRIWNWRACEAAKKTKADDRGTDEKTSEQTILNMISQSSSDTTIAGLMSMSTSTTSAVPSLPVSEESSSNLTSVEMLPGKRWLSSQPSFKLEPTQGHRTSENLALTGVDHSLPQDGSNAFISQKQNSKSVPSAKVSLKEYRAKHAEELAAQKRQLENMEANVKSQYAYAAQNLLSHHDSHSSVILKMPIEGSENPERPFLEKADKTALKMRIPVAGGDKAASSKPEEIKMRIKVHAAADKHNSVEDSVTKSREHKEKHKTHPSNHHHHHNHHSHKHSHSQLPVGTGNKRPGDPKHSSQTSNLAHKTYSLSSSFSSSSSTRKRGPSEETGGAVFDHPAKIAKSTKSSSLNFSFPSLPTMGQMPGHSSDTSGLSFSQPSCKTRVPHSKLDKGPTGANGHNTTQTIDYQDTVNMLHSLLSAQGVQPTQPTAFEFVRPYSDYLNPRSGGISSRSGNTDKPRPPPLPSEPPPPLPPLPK
Compound,IC50 (HCC70 cells; Homo sapiens) [µM],IC50 (COV318 cells; Homo sapiens) [µM],IC50 (COV504 cells; Homo sapiens) [µM],IC50 (MB453 cells; Homo sapiens) [µM],IC50 (CDK2/Cyclin E1 complex) [µM],IC50 [1] [µM],IC50 (CDK9/Cyclin T1 complex) [µM],IC50 [2] [µM],IC50 (HCC70 cells) [µM],IC50 (COV318 cells) [µM],IC50 (COV504 cells) [µM],IC50 (MB453 cells) [µM],IC50 (CDK2/Cyclin E1 complex; [3]) [µM],"IC50 [1, 4] [µM]",IC50 (CDK9/Cyclin T1 complex; [5]) [µM],"IC50 [2, 6] [µM]"
"Cc1noc(C)c1-c1ccc2c(-c3nc(N[C@@H]4CC[C@@H](C)NC4)ncc3C(F)(F)F)n[nH]c2n1 [Compound 153, 4-[6-(3,5-dimethylisoxazol-4-yl)-1H-pyrazolo[3,4-b]pyridin-3-yl]-N-[(3R,6R)-6-methyl-3-piperidyl]-5-(trifluoromethyl)pyrimidin-2-amine]",< 0.1,< 0.1,< 0.1,< 0.1,> 0.5,< 0.03,> 0.5,> 0.5,,,,,,,,
"Cc1noc(C)c1-c1ccc2c(-c3nc(N[C@@H]4CNC[C@H](C(=O)N(C)C)C4)ncc3C(F)(F)F)c[nH]c2c1 [Compound 112, (3R,5S)-5-[[4-[6-(3,5-dimethylisoxazol-4-yl)-1H-indol-3-yl]-5-(trifluoromethyl)pyrimidin-2-yl]-amino]-N, N-dimethyl-piperidine-3-carboxamide]",0.1 to 0.5,> 1,0.1 to 0.5,0.1 to 0.5,> 0.5,< 0.03,> 0.5,> 0.5,,,,,,,,
Cc1noc(C)c1-c1ccc2c(-c3nc(N[C@H]4CCC(C)(C)NC4)ncc3C(F)(F)F)c[nH]c2n1 [Compound 116],< 0.1,< 0.1,< 0.1,< 0.1,> 0.5,< 0.03,> 0.5,> 0.5,,,,,,,,
Cc1nnc(-c2ccc3c(-c4nc(N[C@H]5CCCNC5)ncc4C(F)(F)F)c[nH]c3c2)s1 [Compound 123],0.1 to 0.5,0.1 to 0.5,< 0.1,< 0.1,> 0.5,< 0.03,> 0.5,> 0.5,,,,,,,,
"3-methyl-4-(3-(2-(methylthio)-5-(trifluoromethyl)pyrimidin-4-yl)-1-(phenylsulfonyl)-1H-pyrrolo[2,3-b]pyridin-6-yl)isoxazole [Compound 147]",,,,,,,,,< 0.1,> 1,< 0.1,< 0.1,> 0.5,< 0.03,> 0.5,> 0.5
"C[C@H]1CC[C@H](Nc2ncc(C(F)(F)F)c(-c3c[nH]c4nc(-c5cnnn5C)ccc34)n2)CN1 [Compound 150, N-[(3S,6S)-6-methyl-3-piperidyl]-4-[6-(3-methyltriazol-4-yl)-1H-pyrrolo[2,3-b]pyridin-3-yl]-5-(trifluoromethyl)pyrimidin-2-amine]",0.1 to 0.5,0.1 to 0.5,< 0.1,< 0.1,> 0.5,< 0.03,> 0.5,> 0.5,,,,,,,,
"Cc1nsc(-c2ccc3c(-c4nc(N[C@@H]5CC[C@@H](C)NC5)ncc4C(F)(F)F)c[nH]c3n2)n1 [Compound 159, N-[(3R,6R)-6-methyl-3-piperidyl]-4-[6-(3-methyl-1,2,4-thiadiazol-5-yl)-1H-pyrrolo[2,3-b]pyridin-3-yl]-5-(trifluoromethyl)pyrimidin-2-amine]",< 0.1,> 1,< 0.1,< 0.1,> 0.5,< 0.03,> 0.5,> 0.5,,,,,,,,
"Cc1nnnn1-c1ccc2c(-c3nc(N[C@H]4CCCNC4)ncc3C(F)(F)F)c[nH]c2n1 [Compound 141, 4-[6-(5-methyltetrazol-1-yl)-1H-pyrrolo[2,3-b]pyridin-3-yl]-N-[(3S)-3-piperidyl]-5-(trifluoromethyl)pyrimidin-2-amine]",0.1 to 0.5,0.1 to 0.5,< 0.1,0.1 to 0.5,> 0.5,< 0.03,> 0.5,> 0.5,,,,,,,,
"Cc1nocc1-c1ccc2c(-c3nc(N[C@H]4CCC(C)(C)NC4)ncc3C(F)(F)F)n[nH]c2n1 [Compound 160, (S)—N-(6,6-dimethylpiperidin-3-yl)-4-(6-(3-methylisoxazol-4-yl)-1H-pyrazolo[3,4-b]pyridin-3-yl)-5-(trifluoromethyl)pyrimidin-2-amine]",> 1,> 1,0.1 to 0.5,0.1 to 0.5,> 0.5,< 0.03,> 0.5,> 0.5,,,,,,,,
CC1(C)CNC[C@@H](Nc2ncc(C(F)(F)F)c(-c3c[nH]c4cc(-c5nccs5)ccc34)n2)C1 [Compound 109],0.1 to 0.5,< 0.1,< 0.1,0.1 to 0.5,> 0.5,< 0.03,> 0.5,> 0.5,,,,,,,,
Cc1nsc(-c2ccc3c(-c4nc(N[C@H]5CCCNC5)ncc4C(F)(F)F)c[nH]c3n2)n1 [Compound 142],< 0.1,0.5 to 1,< 0.1,< 0.1,> 0.5,< 0.03,> 0.5,> 0.5,,,,,,,,
"Cc1noc(C)c1-c1ccc2c(-c3nc(N[C@@H]4CNC[C@H](C(=O)N(C)C)C4)ncc3C(F)(F)F)c[nH]c2n1 [Compound 119, (3R,5S)-5-[[4-[6-(3,5-dimethylisoxazol-4-yl)-1H-pyrrolo[2,3-b]pyridin-3-yl]-5-(trifluoromethyl)pyrimidin-2-yl]amino]-N,N-dimethyl-piperidine-3-carboxamide]",< 0.1,> 1,< 0.1,< 0.1,> 0.5,< 0.03,> 0.5,> 0.5,,,,,,,,
"CO[C@@H]1CCNC[C@H]1Nc1ncc(C(F)(F)F)c(-c2c[nH]c3cc(-c4c(C)noc4C)ccc23)n1 (single isomer, unassigned) [Compound 127]",> 1,0.1 to 0.5,< 0.1,< 0.1,> 0.5,< 0.03,> 0.5,> 0.5,,,,,,,,
"Cc1noc(C)c1-c1ccc2c(-c3nc(N[C@@H]4CNC[C@H](O)C4)ncc3C(F)(F)F)c[nH]c2n1 [Compound 133, (3R,5S)-5-[[4-[6-(3,5-dimethylisoxazol-4-yl)-1H-pyrrolo[2,3-b]pyridin-3-yl]-5-(trifluoromethyl)pyrimidin-2-yl]amino]piperidin-3-ol]",< 0.1,0.1 to 0.5,< 0.1,< 0.1,> 0.5,< 0.03,> 0.5,> 0.5,,,,,,,,
"Cc1noc(C)c1-c1ccc2c(-c3nc(N[C@H]4CCCNC4)ncc3C(F)(F)F)c[nH]c2n1 [Compound 101, 4-[6-(3,5-dimethylisoxazol-4-yl)-1H-pyrrolo-[2,3-b]-pyridin-3-yl]-N-[(3S)-3-piperidyl]-5-(trifluoromethyl)pyrimidin-2-amine]",< 0.1,< 0.1,< 0.1,< 0.1,> 0.5,< 0.03,> 0.5,0.1 to 0.5,,,,,,,,
"Cc1nnc(-c2ccc3c(-c4nc(N[C@H]5CCCNC5)ncc4C(F)(F)F)c[nH]c3n2)s1 [Compound 155, 4-[6-(5-methyl-1,3,4-thiadiazol-2-yl)-1H-pyrrolo[2,3-b]pyridin-3-yl]-N-[(3S)-3-piperidyl]-5-(trifluoromethyl)pyrimidin-2-amine]",< 0.1,< 0.1,< 0.1,< 0.1,> 0.5,< 0.03,> 0.5,> 0.5,,,,,,,,
"Cc1noc(C)c1-c1ccc2c(-c3nc(N[C@@H]4CN(C(=O)OC(C)(C)C)CC[C@@H]4C)ncc3C(F)(F)F)cn(S(=O)(=O)c3ccccc3)c2n1 (single isomer, unassigned) [Compound 143]",< 0.1,> 1,< 0.1,< 0.1,,,,,,,,,> 0.5,< 0.03,> 0.5,> 0.5
"C[C@@H]1CC[C@@H](Nc2ncc(C(F)(F)F)c(-c3c[nH]c4nc(-c5cnnn5C)ccc34)n2)CN1 [Compound 151, N-[(3R,6R)-6-methyl-3-piperidyl]-4-[6-(3-methyltriazol-4-yl)-1H-pyrrolo[2,3-b]pyridin-3-yl]-5-(trifluoromethyl)pyrimidin-2-amine]",> 1,> 1,> 1,0.5 to 1,> 0.5,< 0.03,> 0.5,> 0.5,,,,,,,,
CNC(=O)[C@H]1CNC[C@@H](Nc2ncc(C(F)(F)F)c(-c3c[nH]c4nc(-c5c(C)noc5C)ccc34)n2)C1 [Compound 120],0.1 to 0.5,0.5 to 1,0.1 to 0.5,< 0.1,> 0.5,< 0.03,> 0.5,> 0.5,,,,,,,,
